SMILES strings stand for the structures.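 Cultured in 96-well plates, cells were exposed to test compound for 48 hours across five concentrations. GI50: concentration for 50% inhibition of growth. TGI marks complete inhibition of growth.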 Bounds are passed on as bounds.

Assay in all cases: NCI-60 cell line screen, 48 h
Assay [1] concerns SN12C renal.
For assay [2], the system named is SK-MEL-5 melanoma.
Assay [3] has as its system HCT-116 colon.
Assay [4] relates to HCC-2998 colon.
Assay [5] has as its system SNB-75 CNS.
Assay [6] relates to HL-60(TB) leukemia.
The subject of assay [7] is SR leukemia.
Assay [8] has as its system SK-MEL-2 melanoma.
Assay [9] has as its system SNB-19 CNS.
For assay [10], the system named is OVCAR-8 ovarian.

On to `Cc1c(Cl)cccc1C(=O)Nc1nc2c(s1)CN(C(=O)c1ccc(C(F)(F)F)cc1)CC2`, for which the GI50 was 0.284 µM in assay [1]; 0.175 µM in assay [2]; 0.101 µM in assay [3]; 0.2 µM in assay [4]; 0.0814 µM in [5]; 0.108 µM in [6]. In addition, the GI50 in [7] was 0.0294 µM; in assay [8], 0.202 µM; in [9], 0.171 µM; in assay [10], 0.241 µM. Also, the TGI in assay [1] is above 50 µM; in assay [2], 6.01 µM; in [3], above 18.4 µM; in [4], above 50 µM; in assay [5], above 50 µM; in [6], 1.25 µM. Also, the TGI is above 50 µM in [7], above 50 µM in assay [8], above 50 µM in assay [9] and above 35.3 µM in assay [10].
For `CC(=O)Nc1ccc(S(=O)(=O)N/N=C/CN2C(=O)c3ccccc3C2=O)cc1`, the TGI in [1], in assay [2], in assay [3], in assay [4], in assay [5] and in assay [6] was above 100 µM throughout. Also, the TGI in assay [7], in assay [8], in assay [9] and in [10] was above 100 µM each time.
Take `CC1CCC/C1=C(/I)C(=O)c1ccccc1` (stereo not drawn): the TGI in assay [1] is above 100 µM; in [2] it was 69.5 µM; in [3] it was above 100 µM; in assay [4] it was above 100 µM; in assay [5] it was 85 µM; in assay [6], 70.4 µM. Moreover, the TGI in assay [7] is 78.1 µM; in assay [8], above 100 µM; in [9] it was above 100 µM; in [10], above 100 µM.
Regarding `Cc1ccccc1OCC(O)CN1CCN(c2ccc(Cl)cc2)CC1` (stereo not drawn), the GI50 is 16 µM in [1]; 16.3 µM in [2]; 14.6 µM in assay [3]; 16.7 µM in assay [4]; 15.4 µM in assay [5]; 17.6 µM in [6]. In addition, the GI50 in assay [7] is 14.3 µM; in assay [8], 18.7 µM; in [9], 17.6 µM; in assay [10], 21 µM. Besides, the TGI stood at 30.8 µM in assay [1]; 30.2 µM in assay [2]; 29.3 µM in assay [3]; 31.6 µM in assay [4]; 31 µM in assay [5]; 56 µM in assay [6]. Also, the TGI in assay [7] worked out at 40.1 µM; in [8] it was 35 µM; in assay [9], 35.5 µM; in [10], 44.4 µM.
Consider `O=C(Nc1cccc(-n2cc(-c3ccncc3)c(-c3ccc(Cl)c(O)c3)n2)c1)Nc1cc(C(F)(F)F)cc(C(F)(F)F)c1`, for which the GI50 in assay [1] is 0.852 µM; in assay [2], 0.604 µM; in assay [3] it was 0.487 µM; in [4], 0.977 µM; in [5], 0.896 µM; in assay [6] it was 1.13 µM. The GI50 in [7] is 0.876 µM; in [8] it was 0.999 µM; in [9], 0.979 µM; in [10] it was 0.563 µM. Besides, the TGI was found to be 3.14 µM in assay [1]; 1.26 µM in assay [2]; 1.24 µM in assay [3]; 2.04 µM in [4]; 2.3 µM in assay [5]; 6.63 µM in [6]. For the same compound, the TGI in assay [7] was 3.22 µM; in [8], 2.18 µM; in [9] it was 6.65 µM; in assay [10], 5.92 µM.
On to `C=C(C(N)=O)c1ccc([N+](=O)[O-])o1`, for which the TGI in [1] amounted to 22.4 µM; in [2], 16.4 µM; in assay [3], 14.7 µM; in assay [4], 33.6 µM; in assay [5], 37.1 µM; in assay [6], 6.12 µM. In addition, the TGI was 36.9 µM in assay [7], 22.5 µM in [8], above 100 µM in [9] and 10.6 µM in assay [10].
Take `NCCCC[C@@H]1NC(=O)[C@H]2CCCN2C(=O)[C@H](Cc2ccccc2)CNC(=O)[C@H](Cc2ccccc2)NC1=O`: the GI50 is above 37.5 µM in [1]; above 37.5 µM in assay [2]; above 37.5 µM in assay [3]; above 37.5 µM in [4]; above 37.5 µM in assay [5]; above 11.3 µM in [6]. For the same compound, the GI50 in assay [7] is 31.9 µM; in [8], above 37.5 µM; in [9], above 37.5 µM; in [10], above 37.5 µM. Also, the TGI in assay [1], in [2], in assay [3], in assay [4], in assay [5] and in [6] was above 37.5 µM in each case. Further, the TGI in assay [7], in [8], in assay [9] and in assay [10] was above 37.5 µM throughout.
In the case of `C=C1CC2OC(=O)C(=C)C2C(O)C2C(=C)CCC12` (stereo not drawn), the TGI in [1] was 18.1 µM; in assay [2] it was 25.3 µM; in assay [3], 14.5 µM; in assay [4] it was 22.2 µM; in assay [5], 21.5 µM; in assay [6], 6.32 µM. The TGI in [7] came out at 14 µM; in [8] it was 40.8 µM; in [9], 30.8 µM; in [10] it was 18 µM.
Take `COc1cccc(-c2c[nH]c3c(N/N=C/c4ccncc4)ncnc23)c1`: the GI50 in [1] is 1.65 µM; in assay [2] it was 0.809 µM; in assay [3] it was 1.24 µM; in assay [4], 4.36 µM; in [5], 1.47 µM; in assay [6] it was 1.7 µM. For the same compound, the GI50 is 0.872 µM in [7], 1.7 µM in assay [8], 7.15 µM in [9] and 2.57 µM in [10]. The TGI was above 19.3 µM in [1]; 3.91 µM in assay [2]; 5.36 µM in assay [3]; 15.8 µM in assay [4]; 6.78 µM in [5]; 7.35 µM in assay [6]. Moreover, the TGI is above 24.1 µM in assay [7], 6.15 µM in [8], above 25 µM in assay [9] and 11.8 µM in assay [10].
Consider `O=C1OCC2=C1C(c1cccc(Cl)c1)c1cc3c(cc1N2CCO)OCCO3` (stereo not drawn), for which the GI50 was 0.27 µM in [1]; 0.036 µM in assay [2]; 0.0566 µM in assay [3]; 0.157 µM in [4]; 0.0419 µM in assay [5]; 0.0472 µM in assay [6]. In addition, the GI50 in assay [7] was 0.0581 µM; in assay [8], 0.0335 µM; in assay [9], 0.0747 µM; in assay [10] it was 0.176 µM. For the same compound, the TGI is 46.3 µM in assay [1]; 0.507 µM in [2]; 4.01 µM in assay [3]; 2.91 µM in [4]; 39.3 µM in assay [5]; 0.346 µM in assay [6]. Further, the TGI was 67.4 µM in assay [7], 0.607 µM in assay [8], above 100 µM in assay [9] and 4.33 µM in assay [10].
Regarding `C=CCN=C(N/N=C/c1ccc([N+](=O)[O-])o1)NS(=O)(=O)c1cc(C(=O)Nc2ccc(Cl)cc2)c(Cl)cc1SC`, the GI50 was 2.63 µM in assay [1]; 2.14 µM in [2]; 0.935 µM in [3]; 2.29 µM in [4]; above 100 µM in assay [5]; 1.05 µM in assay [6]. Moreover, the GI50 is 1.28 µM in assay [7] and above 100 µM in assay [9]. The TGI in [1] was above 100 µM; in [2] it was 4.82 µM; in assay [3], 4.04 µM; in [4], 5.96 µM; in assay [5], above 100 µM; in assay [6], 8.09 µM. Also, the TGI in assay [7] was above 23.6 µM; in assay [8], above 24.4 µM; in [9], above 100 µM; in [10] it was above 20.7 µM.
Regarding `CN(C)CCN1C(=O)c2c(c3c4ccccc4n4c3c3c2c2ccccc2n3C2CC(O)C(O)C4(C)O2)C1=O` (stereo not drawn), the GI50 in [1] was 0.914 µM; in [2], 1.58 µM; in assay [3], 0.626 µM; in assay [4], 3.93 µM; in [5], 1.41 µM; in assay [6], 2.47 µM. Moreover, the GI50 in assay [7] is 0.207 µM; in assay [8], 2.97 µM; in assay [9] it was 1.58 µM; in [10], 1.47 µM. Also, the TGI in assay [1] turned out to be 7.87 µM; in [2] it was 7.14 µM; in assay [3] it was 6.71 µM; in [4], 10.6 µM; in assay [5], 8.29 µM; in [6] it was 12.8 µM. In addition, the TGI in [7] came to 6.17 µM; in [8], 9.2 µM; in [9], 11.8 µM; in assay [10], 9.39 µM.
With `OC1(C23CC4CC(CC(C4)C2)C3)CSCC1(O)C12CC3CC(CC(C3)C1)C2` (stereo not drawn), the TGI in assay [1] is above 100 µM; in assay [2], above 100 µM; in assay [3], above 100 µM; in [4] it was above 100 µM; in [5], above 100 µM; in assay [6], above 10 µM. Further, the TGI in assay [7], in assay [8], in assay [9] and in assay [10] was above 100 µM throughout.
As to `Cc1c(C(=O)Nc2ccccc2)sc2ncn(Cc3cccc(Cl)c3)c(=O)c12`, the GI50 in assay [1] is 20 µM; in assay [2] it was 25.7 µM; in assay [3] it was 19.2 µM; in assay [4], 4.67 µM; in [5], 33.3 µM; in [6], 16.3 µM. Further, the GI50 in assay [7] is 14.8 µM; in assay [8], 49.2 µM; in [9], 30.1 µM; in assay [10], 28.7 µM. For the same compound, the TGI is 85.1 µM in assay [1]; above 100 µM in assay [2]; above 100 µM in assay [3]; 67.8 µM in assay [4]; above 100 µM in assay [5]; above 100 µM in [6]. In addition, the TGI is 53 µM in [7], above 100 µM in assay [8], above 100 µM in assay [9] and 89.1 µM in assay [10].
`COc1cc2nc(N3CCCC3)nc(NCc3ccccc3)c2cc1OC`: the GI50 in [1] was 8.09 µM; in [2] it was 1.65 µM; in assay [3], 1.82 µM; in [4], 2.13 µM; in assay [5], 1.69 µM; in assay [6], 2.07 µM. The GI50 is 1.53 µM in [7], 2.26 µM in [8], 5.05 µM in assay [9] and 3.2 µM in assay [10]. In addition, the TGI in assay [1] is 21.7 µM; in assay [2], 3.12 µM; in assay [3], 4.12 µM; in [4], 4.25 µM; in [5], 5.38 µM; in assay [6], 4.33 µM. In addition, the TGI came out at 5.3 µM in assay [7], 5.13 µM in assay [8], 17.7 µM in assay [9] and 13.7 µM in assay [10].
In the case of `CSC1=C(N)C(=O)c2[nH]cc(CO)c2C1=N`, the GI50 is 0.16 µM in assay [1]; 0.0451 µM in assay [2]; 0.256 µM in [3]; 0.173 µM in assay [4]; 0.165 µM in assay [5]; 0.222 µM in assay [6]. Further, the GI50 is 0.221 µM in assay [7], 0.211 µM in [8], 0.155 µM in assay [9] and 0.275 µM in assay [10]. The TGI in [1] is 0.317 µM; in assay [2] it was 0.164 µM; in [3] it was 0.666 µM; in assay [4] it was 0.338 µM; in [5] it was 0.307 µM; in [6], 0.514 µM. Besides, the TGI turned out to be 0.659 µM in assay [7], 0.503 µM in assay [8], 0.295 µM in assay [9] and 0.948 µM in assay [10].
On to `O=c1cnn(C2OC(CO)C(O)C2O)c(=S)[nH]1` (stereo not drawn), for which the TGI in [1], in assay [2], in assay [3], in [4], in assay [5] and in [6] was above 100 µM in each case. The TGI in assay [7] was 19.2 µM; in [8] it was above 100 µM; in [9], above 100 µM; in assay [10], above 100 µM.

The record behind these values is PubChem BioAssay (NCI).
